For one test, the target named is T1, human PPARdelta (Homo sapiens, UniProt Q03181).
T1 construct: human PPARdelta receptor (amino acids S139-Y441); expressed in transfected cells; host or cells: HEK (human embryo kidney) cells, stably transfected; plasmid pcDNA3
T1 sequence (Q03181 139-441): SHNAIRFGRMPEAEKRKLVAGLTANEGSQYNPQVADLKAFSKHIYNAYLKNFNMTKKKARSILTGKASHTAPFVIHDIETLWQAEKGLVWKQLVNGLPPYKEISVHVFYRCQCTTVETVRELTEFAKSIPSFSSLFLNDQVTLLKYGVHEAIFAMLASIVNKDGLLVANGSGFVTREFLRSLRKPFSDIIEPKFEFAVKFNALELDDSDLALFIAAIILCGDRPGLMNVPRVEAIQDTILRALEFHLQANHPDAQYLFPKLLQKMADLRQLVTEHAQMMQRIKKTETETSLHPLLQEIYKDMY
The test can be described thus: Cellular PPARdelta assay (HEK reporter cell line, luciferase). Particulars: PPARdelta reporter cell line (HEK, GR-GAL4-humanPPARdelta-LBD). It counts as cell-based. How it is done:
The potency of substances which bind to human PPARdelta and activate it in an agonistic manner is analyzed using a stably transfected HEK cell line (HEK=human embryo kidney) which is referred to here as PPARdelta reporter cell line. In analogy to the assay described for PPARalpha, the PPARdelta reporter cell line also contains two genetic elements, a luciferase reporter element (pdeltaM-GAL4-Luc-Zeo) and a PPARdelta fusion protein (GR-GAL4-humanPPARdelta-LBD) which mediates expression of the luciferase reporter element depending on a PPARdelta ligand. The stably and constitutively expressed fusion protein GR-GAL4-humanPPARdelta-LBD binds in the cell nucleus of the PPARdelta reporter cell line via the GAL4 protein portion to the GAL4 DNA binding motifs 5″-upstream of the luciferase reporter element which is stably integrated in the genome of the cell line. There is only little expression of the luciferase reporter gene in the absence of a PPARdelta ligand if fatty acid-depleted fetal calf serum (cs-FCS) is used in the assay. PPARdelta ligands bind and activate the PPARdelta fusion protein and thereby stimulate expression of the luciferase reporter gene. The luciferase which is formed can be detected by means of chemiluminescence via an appropriate substrate.
The production of the stable PPARdelta reporter cell line is based on a stable HEK-cell clone which was stably transfected with a luciferase reporter element. This step was already described above in the section “construction of the PPARalpha reporter cell line”. In a second step, the PPARdelta fusion protein (GR-GAL4-humanPPARdelta-LBD was stably introduced into this cell clone. For this purpose, the cDNA coding for the N-terminal 76 amino acids of the glucocorticoid receptor (Accession # P4150) was linked to the cDNA section coding for amino acids 1-147 of the yeast transcription factor GAL4 (Accession #P04386). The cDNA of the ligand-binding domain of the human PPARdelta receptor (amino acids S139-Y441; Accession # L07592) was cloned in at the 3′-end of this GR-GAL4 construct. The fusion construct prepared in this way (GR-GAL4-humanPPARdelta-LBD) was recloned into the plasmid pcDNA3 (Invitrogen) in order to enable constitutive expression by the cytomegalovirus promoter. This plasmid was linearized with a restriction endonuclease and stably transfected into the previously described cell clone containing the luciferase reporter element. The resulting PPARdelta reporter cell line which contains a luciferase reporter element and constitutively expresses the PPARdelta fusion protein (GR-GAL4-human PPARdelta-LBD) was isolated by selection with zeocin (0.5 mg/ml) and G418 (0.5 mg/ml).
The activity of PPARdelta agonists is determined in a 3-day assay in exact analogy to the procedure already described for the PPARalpha reporter cell line except that the PPARdelta reporter cell line and a specific PPARdelta agonist was used as a standard to control test efficacy.

The next test has as its target T2, human PPARalpha (Homo sapiens, UniProt Q07869).
T2 construct: human PPARalpha receptor (amino acids S167-Y468); expressed in transfected cells; host or cells: HEK (human embryo kidney) cells, stably transfected; plasmid pcDNA3
T2 sequence (Q07869 167-468): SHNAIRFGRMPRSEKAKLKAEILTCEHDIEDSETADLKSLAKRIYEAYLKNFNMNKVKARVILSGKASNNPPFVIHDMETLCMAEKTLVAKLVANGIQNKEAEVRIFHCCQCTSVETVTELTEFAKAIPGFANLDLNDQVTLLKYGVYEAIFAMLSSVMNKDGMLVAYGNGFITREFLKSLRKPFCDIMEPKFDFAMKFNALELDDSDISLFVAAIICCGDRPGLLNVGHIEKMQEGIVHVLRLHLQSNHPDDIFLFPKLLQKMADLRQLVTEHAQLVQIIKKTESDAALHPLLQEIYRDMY
Nature of the test: Cellular PPARalpha assay (HEK reporter cell line, luciferase). It counts as cell-based. The conditions noted are these: PPARalpha reporter cell line (HEK, GR-GAL4-humanPPARalpha-LBD). The method, then: The potency of substances which bind to human PPARalpha and activate it in an agonistic manner is analyzed using a stably transfected HEK cell line (HEK=human embryo kidney) which is referred to here as PPARalpha reporter cell line. It contains two genetic elements, a luciferase reporter element (pdeltaM-GAL4-Luc-Zeo) and a PPARalpha fusion protein (GR-GAL4-humanPPARalpha-LBD) which mediates expression of the luciferase reporter element depending on a PPARalpha ligand. The stably and constitutively expressed fusion protein GR-GAL4-humanPPARalpha-LBD binds in the cell nucleus of the PPARalpha reporter cell line via the GAL4 protein portion to the GAL4 DNA binding motifs 5′-upstream of the luciferase reporter element which is stably integrated in the genome of the cell line. There is only weak expression of the luciferase reporter gene in the absence of a PPARalpha ligand if fatty acid-depleted fetal calf serum (cs-FCS) is used in the assay. PPARalpha ligands bind and activate the PPARalpha fusion protein and thereby stimulate the expression of the luciferase reporter gene. The luciferase which is formed can be detected by means of chemiluminescence via an appropriate substrate.
The PPARalpha reporter cell line was prepared in two stages. […]
The activity of PPARalpha agonists is determined in a 3-day assay which is described below: […]

The conditions of test [1]: diabetic animal model; cited from earlier work.
For test [2] the following is noted: obese, insulin resistant rhesus monkeys, cited from earlier work.
For test [3] the following is noted: cynomolgus monkeys; cited from earlier work.
The conditions of test [4]: rhesus monkeys; cited from earlier work.
The conditions of test [5]: two weeks clinical trials in healthy volunteers; cited from earlier work.

Here are results for nine molecules from patent publication US8946212B2, “Annelated N-heterocyclic sulfonamides with oxadiazolone headgroup, processes for their preparation and their use as pharmaceuticals” (Sanofi-Aventis, priority 2008, dated 2015).

Like-named read-outs stand apart in the source and are kept apart here.

For the molecule “3-{2-Chloro-4-[4,4-dimethyl-6-(4-trifluoromethyl-phenyl)-3,4-dihydro-2H-quinolin-1-yl]-phenyl}-4H-[1,2,4]oxadiazol-5-one [Example 3]”, the EC50 at human PPARdelta stood at 3.3 nM.

As for “3-{2-Chloro-4-[7-(4-trifluoromethyl-phenyl)-2,3-dihydro-pyrido[3,2-b][1,4]oxazin-4-yl]-phenyl}-4H-[1,2,4]oxadiazol-5-one [Example 8]”, the EC50 on human PPARdelta turned out to be 55 nM.

The molecule “3-{4-[6-(4-Trifluoromethyl-phenyl)-3,4-dihydro-2H-quinolin-1-yl]-phenyl}-4H-[1,2,4]oxadiazol-5-one [Example 1]” showed an EC50 on human PPARdelta of 2.3 nM.

Molecule `CC1(C)Cc2cc(-c3ccc(C(F)(F)F)cc3)ccc2N(c2ccc(-c3noc(=O)[nH]3)c(Cl)c2)C1` [Example 5, 3-{2-Chloro-4-[3,3-dimethyl-6-(4-trifluoromethyl-phenyl)-3,4-dihydro-2H-quinolin-1-yl]-phenyl}-4H-[1,2,4]oxadiazol-5-one] yielded an EC50 at human PPARdelta of 1.9 nM. This EC50 and that of the molecule before are within 1.5-fold of each other.

Consider `O=c1[nH]c(-c2ccc(S(=O)(=O)N3CCNCc4cc(-c5ccc(C(F)(F)F)cc5)ccc43)cc2Cl)no1` [Example 12, 3-{2-Chloro-4-[7-(4-trifluoromethyl-phenyl)-2,3,4,5-tetrahydro-benzo[e][1,4]diazepine-1-sulfonyl]-phenyl}-4H-[1,2,4]oxadiazol-5-one], for which, at human PPARdelta, the EC50 is 530 nM.

With `O=c1[nH]c(-c2ccc(S(=O)(=O)N3CCCc4nc(-c5ccc(C(F)(F)F)cc5)ccc43)cc2Cl)no1` [Example 13, 3-{2-Chloro-4-[6-(4-trifluoromethyl-phenyl)-3,4-dihydro-2H-[1,5]naphthyridine-1-sulfonyl]-phenyl}-4H-[1,2,4]oxadiazol-5-one], the EC50 at human PPARdelta was 0.4 nM; at human PPARalpha, 505 nM.

Consider `CCCc1c(OCCCOc2ccc(OCC(=O)O)cc2)ccc(C(C)=O)c1O` [Example L-165041], for which the plasma cholesterol result in test [1] is “raises”.

In the case of `Cc1cc(SCc2sc(-c3ccc(C(F)(F)F)cc3)nc2C)ccc1OCC(=O)O` [GW501516], in test [2] (plasma), the insulin levels result is “decreases” and the triglycerides result is “decreases”. For the same molecule, in test [2], the HDL-cholesterol result is “raises” and the “plasma LDL-cholesterol” value is “decreases”.

As to `CCCc1c(OCCCSc2nnc(SCC(=O)O)s2)ccc(C(C)=O)c1O` [YM-16638], the plasma lipids entry in test [3] is listed as “significantly lowers”; in test [4], “significantly lowers”; in test [5], “acts in a similar manner”.
